The target of one test is GSK3α (Homo sapiens, UniProt P49840). Nature of the test: GSK3α kinase assay (Caliper LabChip3000 mobility shift, fluoresceinated peptide substrate).
The next test concerns the target GSK3β (Homo sapiens, UniProt P49841). Nature of the test: GSK3β kinase assay (Caliper LabChip3000 mobility shift, fluoresceinated peptide substrate). The test is classed as biochemical. As to conditions: 250 pM enzyme, 20 uM ATP, 1.5 uM peptide, 20 hours room temperature; first value of cell GSK3β/GSK3α; read-out: GSK3β (nM), IC50.
The subject of another test is pTau. As to the kind of experiment: pTau assay (no method described). In kind it is cell-based.

Data on nine compounds can be found in US10752609B2, “GSK-3 inhibitors” (priority 2016, dated 2020).

Sequence of GSK3β (P49841 whole entry, species assumed): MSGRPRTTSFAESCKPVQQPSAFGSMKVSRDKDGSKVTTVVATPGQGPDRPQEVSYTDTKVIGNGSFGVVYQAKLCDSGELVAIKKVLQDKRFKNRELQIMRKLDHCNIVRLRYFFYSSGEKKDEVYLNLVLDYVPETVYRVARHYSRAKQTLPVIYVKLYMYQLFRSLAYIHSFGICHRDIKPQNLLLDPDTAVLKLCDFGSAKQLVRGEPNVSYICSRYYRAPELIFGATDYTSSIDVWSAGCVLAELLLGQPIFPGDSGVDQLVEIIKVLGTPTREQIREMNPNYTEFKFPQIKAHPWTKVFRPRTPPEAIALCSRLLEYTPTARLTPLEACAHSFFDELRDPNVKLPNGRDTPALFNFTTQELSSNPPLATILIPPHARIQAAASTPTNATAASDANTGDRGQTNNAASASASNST
Sequence of GSK3α (P49840 whole entry, species assumed): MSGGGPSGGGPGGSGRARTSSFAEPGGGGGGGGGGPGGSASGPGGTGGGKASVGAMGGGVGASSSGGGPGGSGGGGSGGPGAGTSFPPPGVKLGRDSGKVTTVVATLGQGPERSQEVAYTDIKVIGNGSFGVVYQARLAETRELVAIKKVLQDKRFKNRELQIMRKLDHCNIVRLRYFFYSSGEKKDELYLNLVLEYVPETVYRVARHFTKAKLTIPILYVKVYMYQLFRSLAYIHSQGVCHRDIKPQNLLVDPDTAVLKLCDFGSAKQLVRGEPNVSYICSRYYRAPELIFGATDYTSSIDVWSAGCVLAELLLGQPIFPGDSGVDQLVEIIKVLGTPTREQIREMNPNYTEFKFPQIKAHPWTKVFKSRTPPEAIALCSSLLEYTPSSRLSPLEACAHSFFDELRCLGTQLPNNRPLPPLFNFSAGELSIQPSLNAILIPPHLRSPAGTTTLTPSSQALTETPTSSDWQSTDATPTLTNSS
Method for GSK3α: The kinase assay was performed in V-bottom 384-well plates. […] The reaction was incubated at room temperature for 20 hours and terminated by adding 45 μl of 35 mM EDTA to each sample. The reaction mixture was analyzed on the Caliper LabChip3000 (Caliper, Hopkinton, Mass.) by electrophoretic separation of the unphosphorylated substrate and phosphorylated product. […] Compounds were dissolved at 10 mM in dimethylsulfoxide (DMSO) and evaluated at eleven concentrations. IC50 values were derived by non-linear regression analysis.

Broadly, the IC50 is the concentration at which inhibition is half-maximal. With `Cc1ccccc1-c1cccc(Nc2nccc(C(=O)Nc3cncnc3)n2)c1` [Example 196, 2-((2′-Methyl-[1,1′-biphenyl]-3-yl)amino)-N-(pyrimidin-5-yl)pyrimidine-4-carboxamide], the half-inhibitory concentration (IC50) at GSK3α was found to be 3.9 nM; at GSK3β, 5.2 nM; in the test with pTau, 840 nM.

For `O=C(Nc1cnccc1OCC(F)(F)F)c1ccnc(NCc2cccc(F)c2)n1` [Example 140, 2-((3-Fluorobenzyl)amino)-N-(4-(2,2,2-trifluoroethoxy)pyridin-3-yl)pyrimidine-4-carboxamide], the half-maximal inhibitory concentration (IC50) came out at 1.6 nM at GSK3α, 1.3 nM on GSK3β and 280 nM with pTau.

For `Cc1cc(N2CCC(F)(F)CC2)c(NC(=O)c2ccnc(Nc3ccc(Cl)cc3)n2)cn1` [Example 182, 2-((4-Chlorophenyl)amino)-N-(4-(4,4-difluoropiperidin-1-yl)-6-methylpyridin-3-yl)pyrimidine-4-carboxamide], the IC50 at GSK3α was found to be 1 nM; at GSK3β, 2.5 nM; in the test on pTau it was 220 nM.

As to `COc1ccc(Nc2nccc(C(=O)Nc3cnccc3OCC(F)(F)F)n2)cc1F` [Example 62, 2-((3-Fluoro-4-methoxyphenyl)amino)-N-(4-(2,2,2-trifluoroethoxy)pyridin-3-yl)pyrimidine-4-carboxamide], the half-inhibitory concentration (IC50) on GSK3α stood at 0.09 nM; on GSK3β it was 0.08 nM; in the test with pTau, 230 nM.

On to `Cc1cc(Nc2nccc(C(=O)Nc3cnccc3-c3ccccc3)n2)sn1` [Example 95, 2-((3-Methylisothiazol-5-yl)amino)-N-(4-phenylpyridin-3-yl)pyrimidine-4-carboxamide], for which the IC50 came to 0.7 nM on GSK3α, 5.7 nM at GSK3β and 78 nM in the test with pTau.

With `CC(Nc1nccc(C(=O)Nc2cnccc2OCC(F)(F)F)n1)C12CC3CC(CC(C3)C1)C2` (stereo not drawn) [Example 143, 2-((1-(Adamantan-1-yl)ethyl)amino)-N-(4-(2,2,2-trifluoroethoxy)pyridin-3-yl)pyrimidine-4-carboxamide], the IC50 on GSK3α was 73 nM; on GSK3β, 33 nM; with pTau it was 4900 nM.

In the case of `COc1cccc(C2CC2CNc2nccc(C(=O)Nc3cncnc3)n2)c1` (stereo not drawn) [Example 199, 2-(((2-(3-Methoxyphenyl)cyclopropyl)methyl)amino)-N-(pyrimidin-5-yl)pyrimidine-4-carboxamide], the IC50 was 33 nM on GSK3α, 40 nM at GSK3β and 6100 nM with pTau.

With `O=C(Nc1cnccc1-c1ccccc1)c1ccnc(Nc2ccc(OC(F)F)cc2Cl)n1` [Example 29, 2-((2-Chloro-4-(difluoromethoxy)phenyl)amino)-N-(4-phenylpyridin-3-yl)pyrimidine-4-carboxamide], the IC50 is 2.6 nM on GSK3α, 4.6 nM at GSK3β and 1400 nM with pTau.

As to `COc1ccc(Nc2nccc(C(=O)Nc3cncnc3OCC(F)(F)F)n2)cc1` [Example 77, 2-((4-Methoxyphenyl)amino)-N-(4-(2,2,2-trifluoroethoxy)pyrimidin-5-yl)pyrimidine-4-carboxamide], the half-inhibitory concentration (IC50) at GSK3α is 0.47 nM; at GSK3β, 0.79 nM; in the test on pTau it was 100 nM.
